Source: US12527831B2, “Skin care compositions comprising synergistic blend of sacred lotus and tea plant or sacred lotus and German Chamomile and cosmetic applications thereof” (ISP INVESTMENTS LLC, priority 2019, dated 2026)

System: IL-1α
Assay: Inhibition of IL-1α induced by SDS in cultured epidermal keratinocytes (ELISA)
Type: cell-based
Conditions: Homo sapiens, Keratinocyte; anti-inflammatory benchmark, HEK; read-out: IC50 in inhibiting SDS-induced IL-1α
Experimental: Normal human adult epidermal keratinocytes (HEK) and all cell culture supplies were obtained from Life Technologies Co. (Carlsbad, CA, USA). The cells were grown and then maintained in keratinocyte basal medium 154 ([…]) with added human keratinocyte growth supplements (HKGS) at 37° C. in an atmosphere of 5% CO2 and used between passages 2 to 4. For the experiments, HEK cells were trypsinized, seeded in 96-well plates, and grown to 80% confluence. Specific concentrations of SDS were used for induction of chemokines and cytokines in the cultured HEK cells. IL-1α was induced with 25 μg/mL SDS. The cells were exposed for 16 hours to either SDS alone, or in combination with test articles at various concentrations in triplicates. After incubation, HEK cell supernatants were collected, and levels of interleukins were quantified using Quantikine® ELISA kits from R&D Systems Inc. IL-1α was quantified with catalogue number SLA50 kit. Percent (%) inhibition of IL-1α by the test articles were calculated by comparing to controls from non-SDS-induced cells considered as 0% and from SDS-induced cells considered as 100%. LDH assay using CytoscanTM LDH Assay kit (G-Biosciences Cat. No. 786-324) was performed on all HEK culture supernatants to make sure all tested concentrations had no cytotoxicity, and Kit-supplied lysis buffer was used as positive control.

`CC(=O)Oc1ccccc1C(=O)O` [Aspirin] was tested, and the IC50 was 230 mg/L.
